# In patent publication US12590079B2, “Compounds and uses thereof” (FOGHORN THERAPEUTICS INC., priority 2019, dated 2026):
# What was measured:
# Format in all cases: cell-based
# [1] = target: T1, Nanoluciferase-BRD9 fusion protein (3×FLAG-NLuc-BRD9) (Homo sapiens, UniProt Q9H8M2); test: SYO1 BRD9 NanoLuc degradation assay; conditions: SYO-1 cells expressing 3×FLAG-NLuc-BRD9, 6 hours, top dose 1 μM; read-out: SYO1 BRD9-NanoLuc degradation IC50
# T1 construct: expressed in transfected cells
# T1 sequence (Q9H8M2 1-597): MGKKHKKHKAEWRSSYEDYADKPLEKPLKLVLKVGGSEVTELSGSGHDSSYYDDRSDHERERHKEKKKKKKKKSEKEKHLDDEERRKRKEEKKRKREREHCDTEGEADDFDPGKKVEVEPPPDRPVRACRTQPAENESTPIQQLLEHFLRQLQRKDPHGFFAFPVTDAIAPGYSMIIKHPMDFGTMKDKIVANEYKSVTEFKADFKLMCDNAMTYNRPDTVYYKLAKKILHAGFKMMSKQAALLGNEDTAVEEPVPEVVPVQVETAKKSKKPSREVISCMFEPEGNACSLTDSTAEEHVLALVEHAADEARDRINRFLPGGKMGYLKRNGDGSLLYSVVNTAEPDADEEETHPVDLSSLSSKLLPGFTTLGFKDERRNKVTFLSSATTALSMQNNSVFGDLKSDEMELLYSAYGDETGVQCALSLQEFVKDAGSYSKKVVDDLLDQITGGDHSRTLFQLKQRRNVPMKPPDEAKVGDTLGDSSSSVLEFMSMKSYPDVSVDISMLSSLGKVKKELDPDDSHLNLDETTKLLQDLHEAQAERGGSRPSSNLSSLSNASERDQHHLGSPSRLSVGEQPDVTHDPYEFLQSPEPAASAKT
# Method: Procedure: A stable SYO-1 cell line expressing 3×FLAG-NLuc-BRD9 was generated. On day 0 cells were seeded in 30 μL media into each well of 384-well cell culture plates. The seeding density was 8000 cells/well. On day 1, cells were treated with 30 nL DMSO or 30 nL of 3-fold serially DMSO-diluted compounds (10 points in duplicates with 1 μM as final top dose). Subsequently plates were incubated for 6 hours in a standard tissue culture incubator and equilibrated at room temperature for 15 minutes. Nanoluciferase activity was measured by adding 15 μL of freshly prepared Nano-Glo Luciferase Assay Reagent (Promega N1130), shaking the plates for 10 minutes and reading the bioluminescence using an EnVision reader.
# Results: The Inhibition % was calculated using the following formula: % Inhibition=100×(LumHC−LumSample)/(LumHC−LumLC). DMSO treated cells are employed as High Control (HC) and 1 μM of a known BRD9 degrader standard treated cells are employed as Low Control (LC).
# [2] = system: synovial sarcoma cell lines (SYO1, Yamato, HS-SY-II, and ASKA); test: Cell growth (confluency, crystal violet, colony imaging), synovial sarcoma cell lines, Example 2; conditions: 1 μM or indicated concentrations, day 11 to 23
# Method: (§1) Cells were treated with DMSO or the BRD9 degrader, Compound 1, at indicated concentrations, and proliferation was monitored from day 7 to day 14 by measuring confluency overtime using an IncuCyte live cell analysis system (FIG. 5). Growth medium and compounds were refreshed every 3-4 days.
# (§2) Cells were seeded into 12-well plates and treated with DMSO, 1 μM BRD9 inhibitor, Compound 2 (also known as BI-7273, see Martin et al, J Med Chem. 59(10):4462-4475 (2016); see structure of compound 2 below), or 1 μM BRD9 degrader, Compound 1.
# (§3) The number of cells was optimized for each cell line. Growth medium and compounds were refreshed every 3-5 days. SYO1, Yamato, A549, 293T and HS-SY-II cells were fixed and stained at day 11. ASKA cells were fixed and stained at day 23. Staining was done by incubation with crystal violet solution (0.5 g Crystal Violet, 27 ml 37% Formaldehyde, 100 mL 10×PBS, 10 mL Methanol, 863 dH20 to 1 L) for 30 min followed by 3× washes with water and drying the plates for at least 24 h at room temperature. Subsequently plates were scanned on an Odyssey CLx Imaging system (FIG. 6).
# (§4) Cells were seeded into 96-well ultra-low cluster plate (Costar, #7007) in 200 μL complete media and treated at day 2 with DMSO, Staurosporin, or BRD9 degrader, Compound 1, at indicated doses (FIG. 3C). Media and compounds were changed every 5 d and cell colonies were imaged at day 14.
# [3] = system: non-synovial control cancer cell lines (293T, A549, G401); test: Cell growth (confluency, crystal violet, colony imaging), non-synovial control lines, Example 2; conditions: 1 μM or indicated concentrations
# Method: as §1, §2, §3, §4
# [4] = system: synovial sarcoma cell lines (SYO1, HS-SY-II, and ASKA); test: Crystal violet cell growth, synovial sarcoma cell lines, Example 3; conditions: for inhibition of the growth of the cells: SYO1, HS-SY-II, ASKA, treated daily, stained by day 14
# Method: (§5) Procedure: Cells were seeded into 6-well or 12-well plates and were treated daily with a BRD9 degrader (Compound 1), a bromo-domain BRD9 binder (Compound 2), E3 ligase binder (lenalidomide), DMSO, or staurosporin (positive control for cell killing), at indicated concentrations. The number of cells was optimized for each cell line. Growth media was refreshed every 5 days. By day 14, medium was removed, cells were washed with PBS, and stained using 500 μL of 0.005% (w/v) crystal violet solution in 25% (v/v) methanol for at least 1 hour at room temperature. Subsequently plates were scanned on an Odyssey CLx Imaging system.
# [5] = system: non-synovial control cancer cell lines (RD, HCT116, and Calu6); test: Crystal violet cell growth, non-synovial control lines, Example 3; conditions: treated daily, stained by day 14
# Method: as §5
# SYO1 cells [6] = test: Cell cycle analysis (Click-iT Plus EdU flow cytometry); conditions: 200 nM or 1 μM, 8 or 13 days, compared to DMSO and lenalidomide
# Method: (§6) Procedure: SYO1 cells were treated for 8 or 13 days with DMSO, a BRD9 degrader (Compound 1) at 200 nM or 1 μM, or an E3 ligase binder (lenalidomide) at 200 nM. Compounds were refreshed every 5 days. Cell cycle analysis was performed using the Click-iT™ Plus EdU Flow Cytometry Assay (Invitrogen). The apoptosis assay was performed using the Annexin V-FITC Apoptosis Detection Kit (Sigma A9210). Assays were performed according to the manufacturer's protocol.
# SYO1 cells [7] = test: Apoptosis assay (Annexin V-FITC); conditions: 200 nM or 1 μM, 8 days, compared to DMSO controls
# Method: as §6
SMILES,DC50 [1],inhibition of the growth of the cells [2],inhibition of the growth of the cells [3],inhibition of the growth of the cells [4],inhibition of the growth of the cells [5],"growth inhibition compared with the other treatments ([4]; all synovial cell lines, vs Compound 2 and lenalidomide)",numbers of cells in the S-phase of the cell cycle (SYO1 cells [6]),numbers of early- and late-apoptotic cells (SYO1 cells [7])
"COc1cc(C2=CN(C)C(=O)N(C)C2)cc(OC)c1CN1CCN(CCC2CCN(c3ccc4c(c3)CN(C3CCC(=O)NC3=O)C4=O)CC2)CC1 (centres unmarked) [Compound D3, 3-(5-[4-[2-(4-[[4-(1,3-dimethyl-2-oxo-4H-pyrimidin-5-yl)-2,6-dimethoxyphenyl]methyl]piperazin-1-yl)ethyl]piperidin-1-yl]-1-oxo-3H-isoindol-2-yl)piperidine-2,6-dione Formic Acid]",< 10 nM,–,–,–,–,–,–,–
"COc1cc(C2=CN(C)C(=O)N(C)C2)cc(OC)c1CN1CCC(CCN2CCN(c3ccc4c(c3)CN(C3CCC(=O)NC3=O)C4=O)CC2)CC1 (centres unmarked) [Compound D2, 3-(5-[4-[2-(1-[[4-(1,3-dimethyl-2-oxo-4H-pyrimidin-5-yl)-2,6-dimethoxyphenyl]methyl]piperidin-4-yl)ethyl]piperazin-1-yl]-1-oxo-3H-isoindol-2-yl)piperidine-2,6-dione]",< 10 nM,–,–,–,–,–,–,–
"COc1cc(C2=CN(C)C(=O)N(C)C2)cc(OC)c1CN1CCC(CCN2CCN(c3ccc4c(c3)C(=O)N(C3CCC(=O)NC3=O)C4)CC2)CC1 (centres unmarked) [Compound D1, 3-(6-[4-[2-(1-[[4-(1,3-dimethyl-2-oxo-4H-pyrimidin-5-yl)-2,6-dimethoxyphenyl]methyl]piperidin-4-yl)ethyl]piperazin-1-yl]-1-oxo-3H-isoindol-2-yl)piperidine-2,6-dione]",< 10 nM,–,–,–,–,–,–,–
"COc1cc(-c2cn(C)c(=O)c3cnccc23)cc(OC)c1CN(C)C [Compound 2, BI-7273]",–,results in inhibition of the growth of the cells,does not result in inhibition of the growth,resulted in inhibition of the growth of the cells,did not result in inhibition of the growth,–,–,–
"COc1cc(-c2cn(C)c(=O)c3cnccc23)cc(OC)c1CN(C)CC(=O)NCCOCCOCCNc1cccc2c1C(=O)N(C1CCC(=O)NC1=O)C2=O (centres unmarked) [Compound 1, dBRD9]",–,results in inhibition of the growth of the cells,does not result in inhibition of the growth,resulted in inhibition of the growth of the cells,did not result in inhibition of the growth,most significant growth inhibition in all synovial cell lines,reduced numbers of cells in the S-phase of the cell cycle,increased numbers of early- and late-apoptotic cells
